≈ marks a conversion by molar mass, not a printed value. Where a SMILES comes first, the peptide text is derived from it. Bridges are numbered along the chain shown (N, C = ends). Roman numbers before positions name the chains, in order. [ ]: non-standard residue; d: D form. The star is where a group is joined. Thr(ol) = C[C@@H](O)[C@H](N)CO; Pen = CC(C)(S)[C@H](N)C(=O)O; Tle = CC(C)(C)[C@H](N)C(=O)O; dDab = NCC[C@@H](N)C(=O)O; hSer = N[C@@H](CCO)C(=O)O; Isobutyryl = CC(C)C(=O)*; Dab = NCC[C@H](N)C(=O)O; Dap = NC[C@H](N)C(=O)O
Columns and labels:
Type in all cases: cell-based
[1] = tested on: Acinetobacter baumannii 872842; details: 872842
Method in brief: (§1)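 Visible-growth endpoint after 18-20 h at 35° C defines the MIC (μg/mL). Setup: CLSI broth microdilution, MH-II cation-adjusted broth with P-80 at 0.002% final, inoculum of approximately 10^6 CFU/mL, two-fold serial peptide dilutions.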

[2] = tested on: Acinetobacter baumannii DSM 30008; details: DSM 30008
Method in brief: as §1

[3] = tested on: Enterobacter cloacae 848840; details: 848840
Method in brief: as §1

Escherichia coli 926415 = details: 926415
Method in brief: as §1

[4] = tested on: Escherichia coli ATCC 25922; details: ATCC 25922
Method in brief: as §1

[5] = tested on: Klebsiella pneumoniae 968733; details: 968733
Method in brief: as §1

[6] = tested on: Klebsiella pneumoniae SSI #3010; details: SSI #3010
Method in brief: as §1

[7] = tested on: Pseudomonas aeruginosa ATCC 27853; details: ATCC 27853
Method in brief: as §1

[8] = tested on: human red blood cells (hRBC); experiment: Hemolysis; details: red cells of human, 1 h, 200
Method in brief: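 First, fresh human erythrocytes are washed in PBS; next, they are incubated at 20% (v/v) with compound at 200 μg/mL for 1 h at 37° C. Finally, centrifuged supernatants are diluted and OD540 is taken relative to the Triton X-100 lysis control.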

MIC [1] [µg/mL]	MIC [2] [µg/mL]	MIC [3] [µg/mL]	MIC (Escherichia coli 926415) [µg/mL]	MIC [4] [µg/mL]	MIC [5] [µg/mL]	MIC [6] [µg/mL]	MIC [7] [µg/mL]	SMILES	Hemolysis at 200 μg/mL [8] [%]
0.125 (≈ 0.0527 µM)	0.0625 (≈ 0.0264 µM)	2 (≈ 0.844 µM)	0.25 (≈ 0.105 µM)	0.125 (≈ 0.0527 µM)	0.25 (≈ 0.105 µM)	0.125 (≈ 0.0527 µM)	0.125 (≈ 0.0527 µM)	CC(C)C[C@@H]1NC(=O)[C@@H](CC(C)C)NC(=O)[C@H](CCN)NC(=O)[C@@H](NC(=O)[C@H](CCN)NC(=O)[C@@H](NC(=O)[C@H](CCN)NC(=O)CC[C@@H]2NC(=O)[C@H](CCN)NC(=O)[C@H](Cc3ccc(O)cc3)NC(=O)[C@@H](NC(=O)C(C)C)CSSC[C@@H](C(=O)N[C@H](CO)[C@@H](C)O)NC(=O)[C@H](C(C)(C)C)NC(=O)[C@H](CO)NC(=O)[C@H](Cc3c[nH]c4ccccc34)NC(=O)[C@H](CCO)NC(=O)[C@@H](CCN)NC2=O)[C@@H](C)O)CCNC(=O)[C@H]([C@@H](C)O)NC(=O)[C@H](CCN)NC(=O)[C@H](CCN)NC1=O [Example 3] (I: Isobutyryl-CY[Dab]E[dDab][hSer]WS[Tle]C[Thr(ol)] / II: [Dab]T[Dab][Dab][Dab][dL]L[Dab][Dab]T; disulfide I:1-I:10; amide I:4-II:N; lactam II:4-II:C)	<1
0.03125 (≈ 0.013 µM)	0.01562 (≈ 0.00651 µM)	0.125 (≈ 0.0521 µM)	0.125 (≈ 0.0521 µM)	0.03125 (≈ 0.013 µM)	0.0625 (≈ 0.0261 µM)	0.03125 (≈ 0.013 µM)	0.0625 (≈ 0.0261 µM)	CC(=O)N[C@H](C(=O)N[C@H]1CSSC[C@@H](C(=O)N[C@@H](CO)C(N)=O)NC(=O)[C@H](C(C)C)NC(=O)[C@H](CO)NC(=O)[C@H](Cc2c[nH]c3ccccc23)NC(=O)[C@H](CCN)NC(=O)[C@@H](CCN)NC(=O)[C@H](CCC(=O)N[C@@H](CCN)C(=O)N[C@H](C(=O)N[C@@H](CN)C(=O)N[C@H]2CCNC(=O)[C@H]([C@@H](C)O)NC(=O)[C@H](CCN)NC(=O)[C@H](CCN)NC(=O)[C@H](CC(C)C)NC(=O)[C@@H](CC(C)C)NC(=O)[C@H](CCN)NC2=O)[C@@H](C)O)NC(=O)[C@H](CO)NC(=O)[C@H](Cc2ccc(O)cc2)NC1=O)C(C)C [Ex. 251] (I: Ac-VCYSE[dDab][Dab]WSVCS-NH2 / II: [Dab]T[Dap][Dab][Dab][dL]L[Dab][Dab]T; disulfide I:2-I:11; amide I:5-II:N; lactam II:4-II:C)	1
0.5 (≈ 0.206 µM)	0.25 (≈ 0.103 µM)	4 (≈ 1.65 µM)	0.5 (≈ 0.206 µM)	0.0625 (≈ 0.0257 µM)	4 (≈ 1.65 µM)	0.25 (≈ 0.103 µM)	0.25 (≈ 0.103 µM)	CC(C)C[C@@H]1NC(=O)[C@@H](CC(C)C)NC(=O)[C@H](CCN)NC(=O)[C@@H](NC(=O)[C@H](CCN)NC(=O)[C@@H](NC(=O)[C@H](CCN)NC(=O)CC[C@@H]2NC(=O)[C@H](CCN)NC(=O)[C@H](Cc3ccc(O)cc3)NC(=O)[C@@H](NC(=O)[C@@H](N)C(C)C)C(C)(C)SSC[C@@H](C(=O)N[C@@H](CO)C(=O)O)NC(=O)[C@H](C(C)(C)C)NC(=O)[C@H](CO)NC(=O)[C@H](Cc3c[nH]c4ccccc34)NC(=O)[C@H]([C@@H](C)O)NC(=O)[C@@H](CCN)NC2=O)[C@@H](C)O)CCNC(=O)[C@H]([C@@H](C)O)NC(=O)[C@H](CCN)NC(=O)[C@H](CCN)NC1=O [Ex. 54] (I: H-V[Pen]Y[Dab]E[dDab]TWS[Tle]CS-OH / II: [Dab]T[Dab][Dab][Dab][dL]L[Dab][Dab]T; disulfide I:2-I:11; amide I:5-II:N; lactam II:4-II:C)	<1

From patent US11629171B2, “Beta-hairpin peptidomimetics” (POLYPHOR AG, priority 2017, dated 2023)
